Format in all cases: cell-based
Assay [1] has as its target BaF3 cell lines stably transfected with kinase EGFR L858R/T790M/C797S (Homo sapiens, UniProt P00533, T790M/C797S/L858R, cells depend on it). Description: Growth inhibition of BaF3 cell line stably transfected with kinase EGFR L858R/T790M/C797S (MTS). The following applies: 48 h, read-out: growth inhibitory activity IC50, L858R/T790M/C797S. The gist of the method: (§1)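 Transfected BaF3 cells exposed 48 h at 37 °C to 8-point, 1/3-step dilutions from 10 μM top in 0.1% DMSO, duplicates. MTS/PES added for 1-4 h, OD 490 nm read; inhibition normalised to DMSO and cell-free blank, IC50 fitted from inhibition rates.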

The target of assay [2] is BaF3 cell lines stably transfected with kinase EGFR Del (Homo sapiens, UniProt P00533, cells depend on it, form not given). Description: Growth inhibition of BaF3 cell line stably transfected with kinase EGFR Del (MTS). The note with it: 48 h, read-out: growth inhibitory activity IC50, Del. The gist of the method: as §1
Assay [3] deals with BaF3 cell lines stably transfected with kinase EGFR Del/T790M (Homo sapiens, UniProt P00533, T790M, cells depend on it, form not given). Description: Growth inhibition of BaF3 cell line stably transfected with kinase EGFR Del/T790M (MTS). The note with it: 48 h, read-out: growth inhibitory activity IC50, Del/T790M. The gist of the method:
as §1

Assay [4] deals with BaF3 cell lines stably transfected with kinase EGFR L858R (Homo sapiens, UniProt P00533, L858R, cells depend on it). Description: Growth inhibition of BaF3 cell line stably transfected with kinase EGFR L858R (MTS). The following applies: 48 h, read-out: growth inhibitory activity IC50, L858R. The gist of the method:
as §1

Assay [5] deals with BaF3 cell lines stably transfected with kinase EGFR L858R/T790M (Homo sapiens, UniProt P00533, T790M/L858R, cells depend on it). Kind of assay: Growth inhibition of BaF3 cell line stably transfected with kinase EGFR L858R/T790M (MTS). The note with it: 48 h, read-out: growth inhibitory activity IC50, L858R/T790M. The gist of the method:
as §1

Assay [6] addresses BaF3 cell lines stably transfected with kinase EGFR Del/T790M/C797S (Homo sapiens, UniProt P00533, T790M/C797S, cells depend on it, form not given). Description: Growth inhibition of BaF3 cell line stably transfected with kinase EGFR Del/T790M/C797S (MTS). The following applies: 48 h, read-out: growth inhibitory activity IC50, Del/T790M/C797S. The gist of the method: as §1

Chain of BaF3 cell lines stably transfected with kinase EGFR L858R/T790M (P00533 whole entry T790M/L858R): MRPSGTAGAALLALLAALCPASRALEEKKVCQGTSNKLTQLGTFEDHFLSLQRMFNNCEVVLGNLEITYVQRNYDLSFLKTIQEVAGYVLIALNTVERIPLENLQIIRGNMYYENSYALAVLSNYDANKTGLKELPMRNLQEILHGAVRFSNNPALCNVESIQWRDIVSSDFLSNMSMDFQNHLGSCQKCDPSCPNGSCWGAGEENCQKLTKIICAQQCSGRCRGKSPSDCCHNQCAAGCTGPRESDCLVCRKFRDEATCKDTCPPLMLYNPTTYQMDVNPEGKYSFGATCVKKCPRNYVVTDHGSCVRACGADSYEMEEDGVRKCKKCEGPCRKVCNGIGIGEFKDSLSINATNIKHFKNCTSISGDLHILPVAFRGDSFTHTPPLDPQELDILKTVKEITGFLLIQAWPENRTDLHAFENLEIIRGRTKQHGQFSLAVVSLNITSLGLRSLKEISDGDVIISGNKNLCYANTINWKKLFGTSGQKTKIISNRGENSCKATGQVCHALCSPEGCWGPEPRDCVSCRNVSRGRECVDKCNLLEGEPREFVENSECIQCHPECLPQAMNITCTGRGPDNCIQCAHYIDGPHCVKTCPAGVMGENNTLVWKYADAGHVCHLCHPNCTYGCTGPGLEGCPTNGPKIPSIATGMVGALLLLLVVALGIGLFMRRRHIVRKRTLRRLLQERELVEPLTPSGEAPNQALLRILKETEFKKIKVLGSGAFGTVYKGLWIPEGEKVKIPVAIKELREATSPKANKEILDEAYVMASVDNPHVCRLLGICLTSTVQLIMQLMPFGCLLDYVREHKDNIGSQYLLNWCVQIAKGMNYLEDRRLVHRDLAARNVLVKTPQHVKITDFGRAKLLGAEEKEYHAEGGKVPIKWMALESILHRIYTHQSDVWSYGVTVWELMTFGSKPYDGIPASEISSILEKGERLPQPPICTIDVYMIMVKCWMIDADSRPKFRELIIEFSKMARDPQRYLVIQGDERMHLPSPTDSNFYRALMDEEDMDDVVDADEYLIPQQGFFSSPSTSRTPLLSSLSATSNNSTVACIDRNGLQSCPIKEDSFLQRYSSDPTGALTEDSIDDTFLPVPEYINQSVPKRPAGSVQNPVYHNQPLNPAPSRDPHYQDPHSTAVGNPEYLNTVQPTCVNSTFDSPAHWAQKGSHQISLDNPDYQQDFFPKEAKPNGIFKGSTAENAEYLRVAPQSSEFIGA
Chain of BaF3 cell lines stably transfected with kinase EGFR Del/T790M/C797S (P00533 with tags, fused parts or gaps DEL746-750/T790M/C797S, form open): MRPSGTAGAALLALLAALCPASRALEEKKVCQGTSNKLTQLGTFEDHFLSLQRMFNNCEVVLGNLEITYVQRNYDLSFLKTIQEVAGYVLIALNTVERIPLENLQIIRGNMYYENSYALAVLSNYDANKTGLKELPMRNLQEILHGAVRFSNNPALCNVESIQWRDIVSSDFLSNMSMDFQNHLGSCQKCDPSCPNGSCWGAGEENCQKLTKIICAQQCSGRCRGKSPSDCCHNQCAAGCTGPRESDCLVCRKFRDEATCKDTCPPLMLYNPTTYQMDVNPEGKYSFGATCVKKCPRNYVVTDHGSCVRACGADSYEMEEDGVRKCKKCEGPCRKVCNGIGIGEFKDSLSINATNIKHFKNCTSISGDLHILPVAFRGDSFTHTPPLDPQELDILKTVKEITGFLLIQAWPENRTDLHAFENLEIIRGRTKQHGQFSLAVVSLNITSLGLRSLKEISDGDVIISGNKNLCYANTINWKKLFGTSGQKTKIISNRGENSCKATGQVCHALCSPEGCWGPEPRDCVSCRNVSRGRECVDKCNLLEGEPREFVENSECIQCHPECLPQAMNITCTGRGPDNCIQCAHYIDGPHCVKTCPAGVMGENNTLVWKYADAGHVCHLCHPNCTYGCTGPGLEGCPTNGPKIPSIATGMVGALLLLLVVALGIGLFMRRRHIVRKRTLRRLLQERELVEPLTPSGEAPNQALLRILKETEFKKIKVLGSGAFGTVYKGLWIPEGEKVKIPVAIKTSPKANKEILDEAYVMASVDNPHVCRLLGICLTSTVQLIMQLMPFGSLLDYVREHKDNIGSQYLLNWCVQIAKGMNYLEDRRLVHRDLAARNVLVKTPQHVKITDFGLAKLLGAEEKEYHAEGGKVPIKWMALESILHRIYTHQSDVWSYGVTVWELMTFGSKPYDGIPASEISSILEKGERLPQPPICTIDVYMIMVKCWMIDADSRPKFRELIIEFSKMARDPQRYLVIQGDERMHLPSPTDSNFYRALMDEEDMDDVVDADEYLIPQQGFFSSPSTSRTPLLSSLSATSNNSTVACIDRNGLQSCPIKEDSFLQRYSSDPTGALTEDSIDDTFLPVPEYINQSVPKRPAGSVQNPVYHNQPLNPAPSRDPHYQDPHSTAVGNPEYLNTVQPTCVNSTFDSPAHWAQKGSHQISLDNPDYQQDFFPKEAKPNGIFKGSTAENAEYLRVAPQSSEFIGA
Chain of BaF3 cell lines stably transfected with kinase EGFR L858R/T790M/C797S (P00533 whole entry T790M/C797S/L858R): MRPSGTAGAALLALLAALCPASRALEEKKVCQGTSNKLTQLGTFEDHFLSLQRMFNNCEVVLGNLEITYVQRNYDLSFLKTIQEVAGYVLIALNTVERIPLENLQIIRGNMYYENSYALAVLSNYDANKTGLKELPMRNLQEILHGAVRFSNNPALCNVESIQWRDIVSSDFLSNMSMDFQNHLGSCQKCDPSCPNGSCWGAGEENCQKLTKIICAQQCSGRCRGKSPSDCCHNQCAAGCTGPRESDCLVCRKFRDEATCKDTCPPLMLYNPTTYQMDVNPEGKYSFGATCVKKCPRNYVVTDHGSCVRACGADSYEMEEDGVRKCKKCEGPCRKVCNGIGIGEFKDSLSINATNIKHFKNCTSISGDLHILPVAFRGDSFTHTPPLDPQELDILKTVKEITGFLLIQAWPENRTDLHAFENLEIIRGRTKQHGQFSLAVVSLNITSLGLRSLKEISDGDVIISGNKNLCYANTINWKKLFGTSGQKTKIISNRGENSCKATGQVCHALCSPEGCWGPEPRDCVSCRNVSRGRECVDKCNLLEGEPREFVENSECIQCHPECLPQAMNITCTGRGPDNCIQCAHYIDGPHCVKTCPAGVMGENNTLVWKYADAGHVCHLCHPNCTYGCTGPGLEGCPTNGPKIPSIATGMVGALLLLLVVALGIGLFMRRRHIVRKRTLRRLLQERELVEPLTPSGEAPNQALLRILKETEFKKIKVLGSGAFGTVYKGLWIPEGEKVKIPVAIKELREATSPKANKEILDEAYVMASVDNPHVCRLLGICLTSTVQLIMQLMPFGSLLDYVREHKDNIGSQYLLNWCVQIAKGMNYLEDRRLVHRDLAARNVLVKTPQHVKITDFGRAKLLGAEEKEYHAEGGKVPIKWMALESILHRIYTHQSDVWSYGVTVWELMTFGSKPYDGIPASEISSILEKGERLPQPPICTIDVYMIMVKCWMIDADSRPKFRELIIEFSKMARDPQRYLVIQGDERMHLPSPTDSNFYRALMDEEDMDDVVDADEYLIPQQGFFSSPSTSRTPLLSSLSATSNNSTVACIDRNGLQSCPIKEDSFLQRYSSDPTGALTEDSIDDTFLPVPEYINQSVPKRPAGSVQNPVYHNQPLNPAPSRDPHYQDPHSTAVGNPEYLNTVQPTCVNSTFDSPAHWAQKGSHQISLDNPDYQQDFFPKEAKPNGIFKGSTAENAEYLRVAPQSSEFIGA
Chain of BaF3 cell lines stably transfected with kinase EGFR Del (P00533 with tags, fused parts or gaps DEL746-750): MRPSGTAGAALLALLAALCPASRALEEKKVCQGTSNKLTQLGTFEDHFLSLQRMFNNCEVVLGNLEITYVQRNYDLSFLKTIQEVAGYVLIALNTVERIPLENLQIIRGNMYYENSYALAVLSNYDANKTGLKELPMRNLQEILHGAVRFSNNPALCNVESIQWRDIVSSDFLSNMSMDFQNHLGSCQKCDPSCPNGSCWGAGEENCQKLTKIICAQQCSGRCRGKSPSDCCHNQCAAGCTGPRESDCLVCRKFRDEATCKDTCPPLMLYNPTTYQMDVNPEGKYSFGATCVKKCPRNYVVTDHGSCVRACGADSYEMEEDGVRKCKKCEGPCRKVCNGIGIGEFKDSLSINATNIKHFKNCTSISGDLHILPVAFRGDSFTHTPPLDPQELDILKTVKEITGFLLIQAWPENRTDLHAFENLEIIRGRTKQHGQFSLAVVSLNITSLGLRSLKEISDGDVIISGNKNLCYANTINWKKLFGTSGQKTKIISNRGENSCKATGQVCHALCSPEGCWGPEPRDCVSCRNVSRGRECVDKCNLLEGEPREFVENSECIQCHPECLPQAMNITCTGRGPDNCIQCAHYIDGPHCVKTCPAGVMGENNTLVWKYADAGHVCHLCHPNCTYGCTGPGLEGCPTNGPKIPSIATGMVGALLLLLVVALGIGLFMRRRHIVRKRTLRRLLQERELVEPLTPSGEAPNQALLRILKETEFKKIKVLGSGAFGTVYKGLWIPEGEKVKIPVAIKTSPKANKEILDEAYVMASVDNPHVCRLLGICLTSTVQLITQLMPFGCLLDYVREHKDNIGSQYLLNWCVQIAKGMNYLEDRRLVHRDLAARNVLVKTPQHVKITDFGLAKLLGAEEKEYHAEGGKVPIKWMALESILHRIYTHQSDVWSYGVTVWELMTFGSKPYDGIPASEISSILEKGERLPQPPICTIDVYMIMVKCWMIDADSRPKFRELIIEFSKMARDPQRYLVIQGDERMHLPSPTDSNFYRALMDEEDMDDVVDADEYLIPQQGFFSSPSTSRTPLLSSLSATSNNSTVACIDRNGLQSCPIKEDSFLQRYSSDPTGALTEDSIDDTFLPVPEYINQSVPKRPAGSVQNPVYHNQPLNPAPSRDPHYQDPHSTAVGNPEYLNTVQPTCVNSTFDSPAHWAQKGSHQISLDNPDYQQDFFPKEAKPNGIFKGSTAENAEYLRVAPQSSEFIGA

On to `C=Cc1cnc(Nc2cc(CC)c(N3CCC(N4CCN(C)CC4)CC3)cc2OC(F)(F)F)nc1Nc1ccc2nccnc2c1S(=O)(=O)NC` [IV-5], for which the GI50 in assay [1] lay within 500 to 2500 nM; in assay [2] it was 500 to 2500 nM; in assay [3], 50 to 500 nM; in assay [4] it was 500 to 2500 nM; in assay [5] it was 50 to 500 nM; in assay [6] it was 500 to 2500 nM.
In the case of `C=Cc1cnc(Nc2cc(C(C)C)c(N3CCC(N4CCN(C)CC4)CC3)cc2OC)nc1Nc1ccc2nccnc2c1S(=O)(=O)NC` [IV-6], the GI50 in assay [1] lay in the range of 500 to 2500 nM; in assay [2], 500 to 2500 nM; in assay [3], 50 to 500 nM; in assay [4], 500 to 2500 nM; in assay [5], 50 to 500 nM; in assay [6] it was 500 to 2500 nM.
Consider `C=Cc1cnc(Nc2cc(C3CC3)c(N3CCC(N4CCN(C)CC4)CC3)cc2OC)nc1Nc1ccc2nccnc2c1S(=O)(=O)NC` [IV-7], for which the GI50 in assay [1], in assay [2], in assay [3], in assay [4], in assay [5] and in assay [6] was 50 to 500 nM in each case.
As for `C=Cc1cnc(Nc2cc(CC3CC3)c(N3CCC(N4CCN(C)CC4)CC3)cc2OC)nc1Nc1ccc2nccnc2c1S(=O)(=O)NC` [IV-8], the GI50 fell in the range of 50 to 500 nM in assay [1]; 50 to 500 nM in assay [2]; 50 to 500 nM in assay [3]; 500 to 2500 nM in assay [4]; 50 to 500 nM in assay [5]; 50 to 500 nM in assay [6].
With `C=Cc1cnc(Nc2ccc(N3CCC(N4CCN(C)CC4)CC3)c(CC)c2)nc1Nc1ccc2nccnc2c1S(=O)(=O)NC` [IV-9], the GI50 in assay [1] was 50 to 500 nM; in assay [2] it was 50 to 500 nM; in assay [3] it was 50 to 500 nM; in assay [4] it was 50 to 500 nM; in assay [5] it was not above 50 nM; in assay [6] it was 50 to 500 nM.
Regarding `C=Cc1cnc(Nc2ccc(N3CCC(N4CCN(C)CC4)CC3)c(F)c2F)nc1Nc1ccc2nccnc2c1S(=O)(=O)NC` [IV-10], the GI50 in assay [1] was 50 to 500 nM; in assay [2], 50 to 500 nM; in assay [3], 50 to 500 nM; in assay [4], 50 to 500 nM; in assay [5], not above 50 nM; in assay [6], 50 to 500 nM.
In the case of `C=Cc1cnc(Nc2cc(F)c(N3CCC(N4CCN(C)CC4)CC3)c(F)c2)nc1Nc1ccc2nccnc2c1S(=O)(=O)NC` [IV-11], the GI50 was 50 to 500 nM in assay [1]; 50 to 500 nM in assay [2]; 50 to 500 nM in assay [3]; 50 to 500 nM in assay [4]; not above 50 nM in assay [5]; 50 to 500 nM in assay [6].
On to `C=Cc1cnc(Nc2cc(CC)c(N3CCC(N(C)C)CC3)cc2OC)nc1Nc1ccc2nccnc2c1S(=O)(=O)NC` [IV-13], for which the GI50 in assay [1], in assay [2], in assay [3], in assay [4], in assay [5] and in assay [6] was 50 to 500 nM in each case.
In the case of `C=Cc1cnc(Nc2cc(CC)c(N3CCC(N(C)C)C3)cc2OC)nc1Nc1ccc2nccnc2c1S(=O)(=O)NC` (stereo not drawn) [IV-14], the GI50 in assay [1], in assay [2], in assay [3], in assay [4], in assay [5] and in assay [6] was 50 to 500 nM throughout.
Consider `C=Cc1cnc(Nc2cc(CC)c(N3CCN(C)CC3)cc2OC)nc1Nc1ccc2nccnc2c1S(=O)(=O)NC` [IV-15], for which the GI50 in assay [1], in assay [2], in assay [3], in assay [4], in assay [5] and in assay [6] was 50 to 500 nM each time.
`C=Cc1cnc(Nc2cc(C)c(N3CCC(N4CCN(C)CC4)CC3)cc2OC)nc1Nc1ccc2nccnc2c1S(=O)(=O)NC(C)C` [IV-17]: the GI50 was in the range of 500 to 2500 nM in assay [1]; 500 to 2500 nM in assay [2]; 50 to 500 nM in assay [3]; 50 to 500 nM in assay [4]; 50 to 500 nM in assay [5]; 500 to 2500 nM in assay [6].
On to `C=Cc1cnc(Nc2cc(CC)c(N3CCC(N4CCN(C)CC4)CC3)cc2OC)nc1Nc1ccc2nccnc2c1S(=O)(=O)NC(C)C` [IV-18], for which the GI50 in assay [1] lay in the range of 500 to 2500 nM; in assay [2], 50 to 500 nM; in assay [3], 50 to 500 nM; in assay [4], 50 to 500 nM; in assay [5], 50 to 500 nM; in assay [6] it was 500 to 2500 nM.

The record behind these values is patent US12679822B2, “Alkenyl pyrimidine compound, preparation method therefor, and application thereof” (Hongyun Biotech Co., Ltd., priority 2020, dated 2026).
